PubChem BioAssay (NCI)
Values joined by “and” are separate entries in the source; they are usually repeats but may differ in a detail not shown here. Identical values can stand only once.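 How tested: cells in 96-well plates exposed to compound for 48 hours at five concentrations. At the GI50, growth is halved. The concentration for full growth arrest is given as TGI.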

Experiments:
Assay in all cases: NCI tumour cell line growth inhibition, 48 h
A498 renal = test system: A498 renal
COLO 205 colon = test system: COLO 205 colon
HOP-62 NSCLC = test system: HOP-62 NSCLC
HOP-92 NSCLC = test system: HOP-92 NSCLC
NCI-H522 lung = test system: NCI-H522 lung
OVCAR-8 ovarian = test system: OVCAR-8 ovarian
SN12C renal = test system: SN12C renal
SNB-19 CNS = test system: SNB-19 CNS
U251 CNS = test system: U251 CNS
UO-31 renal = test system: UO-31 renal

SMILES | TGI (A498 renal) [µM] | TGI (COLO 205 colon) [µM] | TGI (HOP-62 NSCLC) | TGI (HOP-92 NSCLC) [µM] | TGI (NCI-H522 lung) [µM] | TGI (OVCAR-8 ovarian) [µM] | TGI (SN12C renal) [µM] | TGI (SNB-19 CNS) [µM] | TGI (U251 CNS) [µM] | TGI (UO-31 renal) [µM] | GI50 (A498 renal) [µM] | GI50 (COLO 205 colon) [µM] | GI50 (HOP-62 NSCLC) [µM] | GI50 (HOP-92 NSCLC) [µM] | GI50 (NCI-H522 lung) [µM] | GI50 (OVCAR-8 ovarian) [µM] | GI50 (SN12C renal) [µM] | GI50 (SNB-19 CNS) [µM] | GI50 (U251 CNS) [µM] | GI50 (UO-31 renal)
Cc1ccccc1NC(=O)C(=O)CC(=O)c1sc(-n2nc(-c3ccccc3)cc2-c2ccccc2)nc1C | > 100 | > 100 | > 100 µM | > 100 | > 100 | > 100 | > 100 | > 100 | > 100 | > 100 | – | – | – | – | – | – | – | – | – | –
O=C(Cn1ccnc1[N+](=O)[O-])NCc1ccc(F)cc1 | > 100 | > 100 | > 100 µM | > 100 | > 100 | > 100 | > 100 | > 100 | > 100 | > 100 | – | – | – | – | – | – | – | – | – | –
OCCN1CCCN(CCCN2c3ccccc3Sc3ccc(C(F)(F)F)cc32)CC1 | 5.63 | 3.68 | 5.05 µM | 7.63 | 14 | 12.2 | 18.5 | 11.7 | 4.32 | 10.6 | 1.69 | 1.94 | 2.25 | 1.73 | 3.23 | 3.46 | 4.5 | 2.84 | 2.04 | 2.3 µM
C#CCN(CCCOc1ccc(Cl)cc1Cl)CCCSC(=O)CCCCCN1/C(=C\C=C2/CCCC(/C=C/C3=[N+](CCCCCC(=O)[O-])c4ccccc4C3(C)C)=C2Cl)C(C)(C)c2ccccc21 | 4.12 | 3.39 | 5.72 µM | 3.53 | 3.34 | 6.83 | 2.74 | 3.64 | 2.11 | 26.2 | 1.31 | 1.41 | 2.1 | 1.57 | 1.16 | 1.99 | 0.587 | 1.12 | 0.733 | 10.6 µM
COc1ccc(N=C2C(=O)Nc3ccc(Br)cc32)cc1 | > 100 | 34.6 | 88.4 µM | 69 | 24.9 | 32.2 | 40.1 | > 100 | 96.8 | 26.5 | – | – | – | – | – | – | – | – | – | –
O=C(O)c1cc2ccc(Cl)cc2c(O)c1C1=CCCCC1 | 79.1 | > 100 | > 100 µM | 85.9 | 92.9 | > 100 | > 100 | > 100 | > 100 | > 100 | – | – | – | – | – | – | – | – | – | –
c1ccc2[nH]c(-c3cscn3)nc2c1 | > 100 | > 100 | > 100 µM and 19.6 µM | > 100 | > 100 | > 100 | > 100 | > 100 | > 100 | > 100 | – | – | – | – | – | – | – | – | – | > 100 µM and 25.8 µM
CC(=O)OCCc1cc2ccccc2oc1=O | > 100 | > 100 | > 100 µM | > 100 | > 100 | > 100 | > 100 | > 100 | > 100 | > 100 | – | – | – | – | – | – | – | – | – | –
COc1ccc2c(c1)CCC1C2CCC2(C)C(NC(=O)CCCCC3CCSS3)CCC12 (stereo unspecified) | > 100 | > 100 | > 100 µM | 63.4 | > 100 | > 100 | > 100 | > 100 | > 100 | > 100 | 62.2 | 5.49 | > 100 | 4.16 | 9.4 | > 100 | 16.4 | > 100 | 17.5 | 6.7 µM
C=C(c1ccc(C(=O)NCCCn2ccnc2)cc1)c1cc2c(cc1C)C(C)(C)CCC2(C)C | > 100 | 3.28 | 11.6 µM | 7.26 | 3.72 | 10.7 | 10.8 | > 100 | 3.29 | 17.7 | 25.2 | 1.12 | 2.46 | 1.62 | 0.123 | 2.95 | < 0.0195 | 2.25 | 0.288 | 3.93 µM
O=C(Nc1c(Cl)cc([N+](=O)[O-])cc1Cl)C(=O)C(C(=O)c1ccncc1)C1OC(=O)c2ccccc21 (stereo unspecified) | > 100 | > 100 | > 100 µM | > 100 | > 100 | > 100 | > 100 | > 100 | > 100 | > 100 | – | – | – | – | – | – | – | – | – | –
COc1cc2c(c(OC)c1OC)-c1ccc(SC)c(=O)cc1C(CC(=O)Oc1ccccc1F)C2 (stereo unspecified) | 6.77 | 0.0376 | > 7.5 µM | > 7.5 | 0.0307 | > 7.5 | > 7.5 | > 7.5 | 0.108 | > 7.5 | – | – | – | – | – | – | – | – | – | –
O=C(Nc1ccc(-n2cc(-c3ccncc3)c(-c3ccc(Cl)c(O)c3)n2)cc1)c1ccc(Cl)c(Cl)c1 | > 100 | > 100 | 2.65 µM | > 100 | > 100 | > 100 | > 100 | > 100 | > 100 | 8.62 | 35.7 | 4.3 | 0.711 | 8.97 | 5.34 | 4.68 | 5.7 | > 100 | 2.65 | 2.83 µM
Fc1nc(Sc2ncnc3nc[nH]c23)nc(-c2c3ccccc3c3sc4ccccc4n23)n1 | > 100 | > 100 | > 100 µM | > 100 | > 100 | > 100 | > 100 | > 100 | > 100 | > 100 | – | – | – | – | – | – | – | – | – | –
COC(=O)c1sc(=S)c2sc(C(=O)OC)c(C(=O)OC)c2c1C(=O)OC | 52.1 | > 100 | > 100 µM | > 100 | 91.5 | > 100 | > 100 | > 100 | > 100 | > 100 | 22.2 | 69.8 | 59.7 | 24.3 | 31 | 57.7 | 30.7 | 86.7 | 50.5 | 68.5 µM
CNc1ccc(CSc2ccc(C)cc2)cc1 | > 100 | 29.3 | > 100 µM | 25.9 | 23.7 | > 100 | 53.6 | > 100 | > 100 | 4.32 | 0.178 | 15.7 | > 100 | 2.36 | 3.62 | 40.5 | 3.62 | 38.6 | 9.85 | 1.16 µM
